Test system: mouse genes
Test: Whole genome expression in blood of mice after 2AA (Affymetrix GeneChip)
Assay type: in vivo
Conditions: for Fold Change X14607 Lipocalin 2 / Fold Change AF220015 Rpt-1; regulatory protein, T lymphocyte 1 / Fold Change AF237910 Membrane-spanning 4-domains, subfamily A / Fold Change AI323359 Csfmr, colony stimulating factor IR, regulator of myeloid cell proliferation / Fold Change AI462015 Nuclear factor of kappa light chain gene enhancer in B-cells inhibitor, alpha / Fold Change AI648846 Solute carrier family 6 / Fold Change AV026617 FBJ osteosarcoma oncogene / Fold Change AV229143 Interferon activated gene (202A) / Fold Change AV318494 Myeloid cell leukemia sequence 1 / Fold Change BB193024 Interferon-induced transmembrane protein-2 / Fold Change BB241535 Suppressor of cytokine signaling 3 / Fold Change BB769628 Colony stimulating factor 2 receptor, beta 1 / Fold Change BB784999 Triggering receptor expressed on myeloid cells 1 / Fold Change BB831725 Suppressor of cytokine signaling 3 / Fold Change BC003839 Myeloid cell leukemia sequence 1 (Mcl1) / Fold Change BC010291 Interferon-inducible protein (Cd225) / Fold Change BC011092 Chemokine (C-C) receptor 1 / Fold Change BC011437 IL-1β / Fold Change BC012653 Chemokine (C-X3-C) receptor 1 / Fold Change BC021916 EMAPI, cytokine activity / Fold Change BC022943 Lymphocyte cytosolic protein 1 / Fold Change BE285634 Interleukin-1 receptor accessory protein / Fold Change NM_008039 Receptor activity [formyl peptide receptor, related sequence 2] (Fpr-rs2) / Fold Change NM_008677 p40phox; intracellular signaling cascade neutrophil cytosolic factor 4 (Ncf4) / Fold Change NM_008879 Pls2, L-fimbrin, calcium ion binding lymphocyte cytosolic proteing 1 (Lep 1) / Fold Change NM_009883 Nuclear factor induced by IL-6 (NF-IL6) / Fold Change NM_011087 Paired-Ig-like receptor A1 (Piral) / Fold Change NM_011313 Cacy; calcium binding protein A6 (calcyclin)cyclin-dependent protein kinase / Fold Change NM_011315 Saa-3 lipid transported activity acute phase response / Fold Change NM_011355 PU.1, transcription factor complex cell growth and/or maintenance / Fold Change NM_011940 Interferon-activatable protein (Ifi202) / Fold Change NM_011999 DCIR; C-type (calcium dependent, carbohydrate recognition domain) lectin / Fold Change NM_030691 Integral to membrane immunoglobulin superfamily, member 6 (Igsf6) / Fold Change NM_030694 Interferon-induced transmembrane protein-3 / Fold Change U05264 Glycoprotein 49B (Gp49b) / Fold Change U72644 Leukocyte specific transcript 1: blood
Description: To identify how 2AA pre-exposure promotes host defense to better protect against P. aeruginosa infection, we carried out whole genome gene expression studies of mice for several experimental conditions using the mouse full-thickness skin thermal injury infection model, including naïve; BI alone; 2AA treatment alone; 2AA pretreatment plus BI. The mice were injected IP, as we were not yet aware of the improved benefit obtained with IV delivery. Whole blood was collected after 0, 6, 24, 96 and 192 hr post 2AA injection. Also, pretreated BI mice were exposed to 2AA at 1 and 4 days pre-BI, with blood samples collected 24 hr post-BI. The transcriptome profiles were then determined and compared, and genes with statistically significant differences in their expression levels between the samples were further analyzed by pair-wise comparison (see experimental design, section 2.2).
In experiments to determine if T-aminoacetophenone acts as an immunomodulator, eight 6-week old CD-1 male mice were treated intraperitonialy with 500 μl of a 20 mM solution of T-aminoacetophenone in 0.9% NaCl (aq). A control group of mice was administered only 0.9% NaCl. Blood was withdrawn from the mice at time points of 6 hours, 24 hours, 96 hours, and 192 hours, and RNA was extracted from each blood sample.
Mouse GeneChip™ arrays, manufactured by Affymetrix (Santa Clara, Calif.), were used to compare the profile of gene expression in the blood samples of mice. The biotin-labeled cRNA used to hybridize to the GeneChips was prepared from the RNA extracted from the blood samples according to the Affymetrix GeneChip Expression Analysis Technical Manual (Research Genetics, Huntsville, Ala.).
The expression profiles from treated and untreated mice were compared and an additional constraint of a minimum expression ratio of 1 was applied to control false positives to 5%. The gene list was clustered and the genes showing upregulation at any of the time points considered were selected. […] Most of the genes listed in the table function in immune response or host-pathogen interaction. The table includes several cytokines and their receptors, genes involved in immune cell proliferation, and calcium-binding proteins that have a role in downstream signaling.

## CC(=O)c1ccccc1N [2AA, 2′-aminoacetophenone]
24 h after IP 2AA
  Fold Change X14607 Lipocalin 2: 0.2 fold
96 h after IP 2AA
  Fold Change AF220015 Rpt-1; regulatory protein, T lymphocyte 1: 0.5 fold
  Fold Change AF237910 Membrane-spanning 4-domains, subfamily A: 0.0 fold
  Fold Change AI323359 Csfmr, colony stimulating factor IR, regulator of myeloid cell proliferation: 0.0 fold
  Fold Change AI462015 Nuclear factor of kappa light chain gene enhancer in B-cells inhibitor, alpha: 0.4 fold
  Fold Change AI648846 Solute carrier family 6: 3.7 fold
  Fold Change AV026617 FBJ osteosarcoma oncogene: 0.0 fold
  Fold Change AV229143 Interferon activated gene (202A): 6.8 fold
  Fold Change AV318494 Myeloid cell leukemia sequence 1: 0.3 fold
  Fold Change BB193024 Interferon-induced transmembrane protein-2: 0.1 fold
  Fold Change BB241535 Suppressor of cytokine signaling 3: 0.3 fold
  Fold Change BB769628 Colony stimulating factor 2 receptor, beta 1: 3.2 fold
  Fold Change BB784999 Triggering receptor expressed on myeloid cells 1: 4.6 fold
  Fold Change BB831725 Suppressor of cytokine signaling 3: 2.0 fold
  Fold Change BC003839 Myeloid cell leukemia sequence 1 (Mcl1): −0.4 fold
  Fold Change BC010291 Interferon-inducible protein (Cd225): −0.3 fold
  Fold Change BC011092 Chemokine (C-C) receptor 1: −0.7 fold
  Fold Change BC011437 IL-1β: 0.2 fold
  Fold Change BC012653 Chemokine (C-X3-C) receptor 1: 0.0 fold
  Fold Change BC021916 EMAPI, cytokine activity: −0.3 fold
  Fold Change BC022943 Lymphocyte cytosolic protein 1: −0.4 fold
  Fold Change BE285634 Interleukin-1 receptor accessory protein: −1.1 fold
  Fold Change NM_008039 Receptor activity [formyl peptide receptor, related sequence 2] (Fpr-rs2): 0.2 fold
  Fold Change NM_008677 p40phox; intracellular signaling cascade neutrophil cytosolic factor 4 (Ncf4): 0.0 fold
  Fold Change NM_008879 Pls2, L-fimbrin, calcium ion binding lymphocyte cytosolic proteing 1 (Lep 1): 0.0 fold
  Fold Change NM_009883 Nuclear factor induced by IL-6 (NF-IL6): −0.1 fold
  Fold Change NM_011087 Paired-Ig-like receptor A1 (Piral): 0.2 fold
  Fold Change NM_011313 Cacy; calcium binding protein A6 (calcyclin)cyclin-dependent protein kinase: 0.5 fold
  Fold Change NM_011315 Saa-3 lipid transported activity acute phase response: 1.5 fold
  Fold Change NM_011355 PU.1, transcription factor complex cell growth and/or maintenance: 9.2 fold
  Fold Change NM_011940 Interferon-activatable protein (Ifi202): 9.4 fold
  Fold Change NM_011999 DCIR; C-type (calcium dependent, carbohydrate recognition domain) lectin: 5.3 fold
  Fold Change NM_030691 Integral to membrane immunoglobulin superfamily, member 6 (Igsf6): 0.0 fold
  Fold Change NM_030694 Interferon-induced transmembrane protein-3: 0.2 fold
  Fold Change U05264 Glycoprotein 49B (Gp49b): 0.6 fold
  Fold Change U72644 Leukocyte specific transcript 1: −0.2 fold
  Fold Change X14607 Lipocalin 2: 0.2 fold
192 h after IP 2AA
  Fold Change AF220015 Rpt-1; regulatory protein, T lymphocyte 1: 0.6 fold
  Fold Change AF237910 Membrane-spanning 4-domains, subfamily A: 0.5 fold
  Fold Change AI323359 Csfmr, colony stimulating factor IR, regulator of myeloid cell proliferation: 0.3 fold
  Fold Change AI462015 Nuclear factor of kappa light chain gene enhancer in B-cells inhibitor, alpha: 0.7 fold
  Fold Change AI648846 Solute carrier family 6: 7.8 fold
  Fold Change AV026617 FBJ osteosarcoma oncogene: 10.5 fold
  Fold Change AV229143 Interferon activated gene (202A): 6.2 fold
  Fold Change AV318494 Myeloid cell leukemia sequence 1: 1.2 fold
  Fold Change BB193024 Interferon-induced transmembrane protein-2: 0.3 fold
  Fold Change BB241535 Suppressor of cytokine signaling 3: 1.0 fold
  Fold Change BB769628 Colony stimulating factor 2 receptor, beta 1: 5.2 fold
  Fold Change BB784999 Triggering receptor expressed on myeloid cells 1: 0.0 fold
  Fold Change BB831725 Suppressor of cytokine signaling 3: 5.9 fold
  Fold Change BC003839 Myeloid cell leukemia sequence 1 (Mcl1): 0.1 fold
  Fold Change BC010291 Interferon-inducible protein (Cd225): −0.3 fold
  Fold Change BC011092 Chemokine (C-C) receptor 1: −0.3 fold
  Fold Change BC011437 IL-1β: 0.6 fold
  Fold Change BC012653 Chemokine (C-X3-C) receptor 1: 0.0 fold
  Fold Change BC021916 EMAPI, cytokine activity: −0.2 fold
  Fold Change BC022943 Lymphocyte cytosolic protein 1: −0.1 fold
  Fold Change BE285634 Interleukin-1 receptor accessory protein: −0.2 fold
  Fold Change NM_008039 Receptor activity [formyl peptide receptor, related sequence 2] (Fpr-rs2): 0.2 fold
  Fold Change NM_008677 p40phox; intracellular signaling cascade neutrophil cytosolic factor 4 (Ncf4): 0.1 fold
  Fold Change NM_008879 Pls2, L-fimbrin, calcium ion binding lymphocyte cytosolic proteing 1 (Lep 1): 0.0 fold
  Fold Change NM_009883 Nuclear factor induced by IL-6 (NF-IL6): −0.1 fold
  Fold Change NM_011087 Paired-Ig-like receptor A1 (Piral): 0.1 fold
  Fold Change NM_011313 Cacy; calcium binding protein A6 (calcyclin)cyclin-dependent protein kinase: 1.4 fold
  Fold Change NM_011315 Saa-3 lipid transported activity acute phase response: −0.2 fold
  Fold Change NM_011355 PU.1, transcription factor complex cell growth and/or maintenance: 6.0 fold
  Fold Change NM_011940 Interferon-activatable protein (Ifi202): 9.1 fold
  Fold Change NM_011999 DCIR; C-type (calcium dependent, carbohydrate recognition domain) lectin: 9.6 fold
  Fold Change NM_030691 Integral to membrane immunoglobulin superfamily, member 6 (Igsf6): 5.6 fold
  Fold Change NM_030694 Interferon-induced transmembrane protein-3: 0.6 fold
  Fold Change U05264 Glycoprotein 49B (Gp49b): 0.9 fold
  Fold Change U72644 Leukocyte specific transcript 1: 0.1 fold
  Fold Change X14607 Lipocalin 2: 0.2 fold
IP 2AA, blood 0, 6, 24, 96, 192 hr
  genes with >2× expression differences at least at one point vs control mice: 835 genes
post-2AA treatment
  genes involved in the P38 MAPK pathway induced: 7/8

Source: patent US20130209515A1, “ANTI-INFECTIVE AND IMMUNOMODULATORY COMPOUNDS” (priority 2005, published 2013)
